Data on 27 compounds can be found in patent US20240351986A1, “UREA COMPOUND CONTAINING 2-HETEROAROMATIC RING SUBSTITUTION, PREPARATION METHOD THEREFOR AND USE THEREOF” (SHANGHAI INSTITUTE OF MATERIA MEDICA, CHINESE ACADEMY OF …, priority 2021, published 2024).

The target in this assay is T1, Recombinant human CDK9/cyclin T1 (Homo sapiens, UniProt P50750).
T1 construct: purchased Carna bioscience 04-110
Briefly: CDK9 enzyme inhibitory activity (ADP-Glo kinase assay). Type of assay: biochemical. Conditions: CDK9 enzyme activity, average of two independent repeats; for inhibition at 0.01 µM: read-out: Inhibition rate at different concentrations (%) 10 nM; for inhibition at 0.1 µM: compound 100 nM, read-out: Inhibition rate at different concentrations (%) 100 nM. The protocol:
Experimental method: Recombinant human CDK9/cyclin T1 (Carna bioscience, Cat #04-110) was diluted with dilution buffer (20 mM Tris HCl (pH 7.5), 0.02% Triton X-100, 0.01% BSA, 2 mM DTT, 0.5 mM Na3VO4, 10% Glycerol) to […], the substrates CDK7/9 tide (ThermoFisher, Cat #PV5090) and ATP (sigmaaldrich, Cat #A1852) were diluted with assay buffer (25 mM Tris HCl (pH7.5), 10 mM MgCl2, 0.5 mM EGTA (pH 8), 0.5 mM Na3VO4, 5 mMb-glycerol phosphate, 0.1% Triton X-100, 2.5 mM DTT) to final concentrations of 100 μM and […] respectively, aliquot and set aside. 2 μl of diluted recombinant human CDK9/cyclin T1, 1 μl of test compound, and 2 μl of diluted substrate CDK7/9 tide containing ATP were added to the 384-well plate. […] The positive control was the well in which enzyme and substrate were co-incubated, and the negative control was the well in which dilution buffer and substrate were co-incubated. The inhibition rate was calculated according to the following formula.
A general note: ADP-Glo first removes unused ATP, then detects ADP through luciferase.

T1 sequence (P50750 whole entry): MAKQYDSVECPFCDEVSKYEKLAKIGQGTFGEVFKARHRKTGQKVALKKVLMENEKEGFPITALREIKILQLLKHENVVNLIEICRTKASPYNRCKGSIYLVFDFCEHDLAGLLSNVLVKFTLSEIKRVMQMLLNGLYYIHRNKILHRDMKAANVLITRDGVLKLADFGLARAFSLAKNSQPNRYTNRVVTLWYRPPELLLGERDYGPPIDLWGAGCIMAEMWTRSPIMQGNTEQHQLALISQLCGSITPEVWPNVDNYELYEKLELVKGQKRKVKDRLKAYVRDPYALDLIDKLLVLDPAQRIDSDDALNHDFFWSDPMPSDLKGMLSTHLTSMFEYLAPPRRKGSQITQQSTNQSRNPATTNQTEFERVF
T1 sequence (O60563 whole entry partner): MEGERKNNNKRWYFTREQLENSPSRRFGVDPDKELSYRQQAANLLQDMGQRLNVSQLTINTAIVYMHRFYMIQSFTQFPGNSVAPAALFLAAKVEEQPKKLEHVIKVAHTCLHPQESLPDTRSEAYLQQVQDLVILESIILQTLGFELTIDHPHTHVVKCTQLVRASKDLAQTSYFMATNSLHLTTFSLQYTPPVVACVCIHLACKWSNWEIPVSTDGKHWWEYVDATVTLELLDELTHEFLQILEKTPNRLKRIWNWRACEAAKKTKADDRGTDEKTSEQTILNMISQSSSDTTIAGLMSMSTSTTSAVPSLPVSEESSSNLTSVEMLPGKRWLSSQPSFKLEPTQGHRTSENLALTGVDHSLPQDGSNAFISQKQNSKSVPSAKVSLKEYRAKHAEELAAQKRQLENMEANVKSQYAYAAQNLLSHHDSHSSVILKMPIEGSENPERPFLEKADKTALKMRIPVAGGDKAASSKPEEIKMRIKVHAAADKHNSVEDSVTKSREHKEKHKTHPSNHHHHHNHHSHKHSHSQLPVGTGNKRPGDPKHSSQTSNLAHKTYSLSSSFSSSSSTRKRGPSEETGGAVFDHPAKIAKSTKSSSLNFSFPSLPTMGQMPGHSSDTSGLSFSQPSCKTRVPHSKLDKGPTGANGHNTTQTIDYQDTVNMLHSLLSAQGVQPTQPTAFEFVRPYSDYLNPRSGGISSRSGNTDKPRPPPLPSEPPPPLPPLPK

With `COCCNC1CCC(NC(=O)Nc2cc(-c3ccc(F)cc3OC)c(C)cn2)CC1` (stereo not drawn) [Example 29, 1-(4-(4-fluoro-2-methoxyphenyl)-5-methylpyridin-2-yl)-3-((1r,4r)-4-((2-methoxyethyl)amino)cyclohexyl) urea], the inhibition at 0.1 µM came to 57%. Besides, the inhibition at 0.01 µM (compound 10 nM) was determined as 19.4%.

Consider `COc1cc(F)ccc1-c1cc(NC(=O)NC2CCC(NC(C)=O)CC2)ncc1F` (stereo not drawn) [Example 30, N-((1r,4r)-4-(3-(5-fluoro-4-(4-fluoro-2-methoxyphenyl)pyridin-2-yl)ureido)cyclohexyl)acetamide], for which the inhibition at 0.1 µM is 55.3%. Moreover, under “compound 10 nM”, the inhibition at 0.01 µM is 23.1%.

Consider `COc1cc(F)ccc1-c1cc(NC(=O)NC2CCC(NC(C)=O)CC2)ncc1C` (stereo not drawn) [Example 31, N-((1r,4r)-4-(3-(5-methyl-4-(4-fluoro-2-methoxyphenyl)pyridin-2-yl)ureido)cyclohexyl)acetamide], for which the inhibition at 0.1 µM turned out to be 51.3%. For the same compound, the inhibition at 0.01 µM (compound 10 nM) worked out at 20.7%.

For `COc1cc(F)ccc1-c1cc(NC(=O)NC2CCC(NC(C)=O)CC2)ncc1C#N` (stereo not drawn) [Example 32, N-((1r,4r)-4-(3-(5-cyano-4-(4-fluoro-2-methoxyphenyl)pyridin-2-yl)ureido)cyclohexyl)acetamide], the inhibition at 0.1 µM was found to be 59.8%. Further, the inhibition at 0.01 µM (compound 10 nM) is 18.1%.

Consider `COc1cc(F)ccc1-c1ccnc(NC(=O)Nc2ccc(F)nc2)c1` [Example 33, 1-(4-(4-fluoro-2-methoxyphenyl)pyridin-2-yl)-3(6-fluoropyridin-3-yl)urea], for which the inhibition at 0.1 µM worked out at 81%. Under “compound 10 nM”, the inhibition at 0.01 µM was found to be 11.9%.

As for `COCCNCCCNC(=O)Nc1cc(-c2ccc(F)cc2OC)ccn1` [Example 34, 1-(4-(4-fluoro-2-methoxyphenyl)pyridin-2-yl)-3-(3-((2-methoxyethyl)amino)propyl)urea], the inhibition at 0.1 µM is 54%. Besides, under “compound 10 nM”, the inhibition at 0.01 µM worked out at 7%.

As for `COc1cc(F)ccc1-c1ccnc(NC(=O)NC2CC(N)C2)c1` (stereo not drawn) [Example 35, 1-((1r,3r)-3-aminocyclobutyl)-3-(4-(4-fluoro-2-methoxyphenyl)pyridin-2-yl)urea], the inhibition at 0.1 µM was found to be 62.7%. The inhibition at 0.01 µM (compound 10 nM) is 30%.

As to `COc1cc(F)ccc1-c1ccnc(NC(=O)NC2CC(O)C2)c1` (stereo not drawn) [Example 36, 1-(4-(4-fluoro-2-methoxyphenyl)pyridin-2-yl)-3((1r,3r)-3-hydroxycyclobutyl)urea], the inhibition at 0.1 µM came to 62.8%. Moreover, where the note is “compound 10 nM”, the inhibition at 0.01 µM amounted to 16.5%.

In the case of `COc1cc(F)ccc1-c1ccnc(NC(=O)NC2CCCNCC2)c1` (stereo not drawn) [Example 37, 1-(azepan-4-yl)-3-(4-(4-fluoro-2-methoxyphenyl)pyridin-2-yl)urea], the inhibition at 0.1 µM came out at 60%. In addition, the inhibition at 0.01 µM (compound 10 nM) is 10%.

Consider `COc1cc(F)ccc1-c1ccnc(NC(=S)NC2CCC(N)CC2)c1` (stereo not drawn) [Example 38, 1-((1r,4r)-4-aminocyclohexyl)-3-(4-(4-fluoro-2-methoxyphenyl)pyridin-2-yl)thiourea], for which the inhibition at 0.1 µM turned out to be 27%. Moreover, for the setting “compound 10 nM”, the inhibition at 0.01 µM was 51%.

Regarding `COc1cc(F)ccc1-c1cc(NC(=O)NC2CCC(NC(=O)OC(C)(C)C)CC2)ncn1` (stereo not drawn) [Example 39, tert-butyl ((1r,4r)-4-(3-(6-(4-fluoro-2-methoxyphenyl)pyrimidin-4-yl)ureido)cyclohexyl)carbamate], the inhibition at 0.1 µM came out at 55%. Besides, under “compound 10 nM”, the inhibition at 0.01 µM is 28%.

Take `COc1cc(F)ccc1-c1cc(NC(=O)NC2CCC(NC(C)=O)CC2)ncn1` (stereo not drawn) [Example 40, N-((1r,4r)-4-(3-(6-(4-fluoro-2-methoxyphenyl)pyrimidin-4-yl)ureido)cyclohexyl)acetamide]: the inhibition at 0.1 µM was determined as 59.5%. The inhibition at 0.01 µM (compound 10 nM) stood at 25.3%.

Turning to `COc1cc(F)ccc1-c1ccnc(NC(=O)NC2CCC(NC(C)=O)CC2)n1` (stereo not drawn) [Example 41, N-((1r,4r)-4-(3-(4-(4-fluoro-2-methoxyphenyl)pyrimidin-2-yl)ureido)cyclohexyl)acetamide], the inhibition at 0.1 µM turned out to be 70.2%. Also, under “compound 10 nM”, the inhibition at 0.01 µM amounted to 38.1%.

As for `Cc1c(-c2cc(NC(=O)NC3CCC(N)CC3)ncc2Cl)cnn1C` (stereo not drawn) [Example 42, 1-((1r,4r)-4-aminocyclohexyl)-3-(5-chloro-4-(1,5-dimethyl-1H-pyrazol-4-yl)pyridin-2-yl)urea], the inhibition at 0.1 µM came out at 75%. Further, for the setting “compound 10 nM”, the inhibition at 0.01 µM stood at 44%.

`CC(=O)NC1CCC(NC(=O)Nc2cc(-c3cnn(C)c3C)c(Cl)cn2)CC1` (stereo not drawn) [Example 43, N-((1r,4r)-4-(3-(5-chloro-4-(1,5-dimethyl-1H-pyrazol-4-yl)pyridin-2-yl)ureido)cyclohexyl)acetamide]: the inhibition at 0.1 µM was 87.3%. The inhibition at 0.01 µM (compound 10 nM) was 49%.

`CC1(C)Cc2c(-c3cc(NC(=O)NC4CCC(N)CC4)ncc3Cl)cnn2C1` (stereo not drawn) [Example 44, 1-((1r,4r)-4-aminocyclohexyl)-3-(5-chloro-4-(5,5-dimethyl-5,6-dihydro-4H-pyrrole[1,2-b]pyrazole-3-yl)pyridin-2-yl)urea]: the inhibition at 0.1 µM amounted to 96%. The “Inhibition rate at different concentrations (%) 10 nM” value (compound 10 nM, 0.01 µM) is listed as 83.0%.

Take `CC1(C)Cc2c(-c3cc(NC(=O)NC4CCC(O)CC4)ncc3Cl)cnn2C1` (stereo not drawn) [Example 45, 1-(5-chloro-4-(5,5-dimethyl-5,6-dihydro-4H-pyrrolo[1,2-b]pyrazol-3-yl)pyridin-2-yl)-3-((1r,4r)-4-hydroxycyclohexyl)urea]: the inhibition at 0.1 µM was 94.3%. The inhibition at 0.01 µM (compound 10 nM) was found to be 48.9%.

Regarding `CN(C)CC(=O)NC1CCC(NC(=O)Nc2cc(-c3cnn4c3CC(C)(C)C4)c(Cl)cn2)CC1` (stereo not drawn) [Example 48, N-((1r,4r)-4-(3-(5-chloro-4-(5,5-dimethyl-5,6-dihydro-4H-pyrrolo [1,2-b]pyrazol-3-yl)pyridin-2-yl)ureido)cyclohexyl)-2-(dimethylamino)acetamide], the inhibition at 0.1 µM turned out to be 74%. In addition, the inhibition at 0.01 µM (compound 10 nM) was 54%.

With `CC1(C)Cc2c(-c3cc(NC(=O)NC4CCC(NC(=O)C5CC5)CC4)ncc3Cl)cnn2C1` (stereo not drawn) [Example 49], the inhibition at 0.1 µM was determined as 89.2%. In addition, the inhibition at 0.01 µM (compound 10 nM) came to 58%.

As to `CC1(C)Cc2c(-c3cc(NC(=O)NC4CCC(NC(=O)C5COC5)CC4)ncc3Cl)cnn2C1` (stereo not drawn) [Example 50, N-((1r,4r)-4-(3-(5-chloro-4-(5,5-dimethyl-5,6-dihydro-4H-pyrrolo[1,2-b]pyrazol-3-yl)pyridin-2-yl)ureido)cyclohexyl) oxetane-3-carboxamide], the inhibition at 0.1 µM worked out at 95.1%. Besides, the inhibition at 0.01 µM (compound 10 nM) worked out at 53.2%.

Regarding `CC(=O)NC1CCC(NC(=O)Nc2cc(-c3cnn4c3CC(C)(C)C4)c(F)cn2)CC1` (stereo not drawn) [Example 51, N-((1r,4r)-4-(3-(4-(5,5-dimethyl-5,6-dihydro-4H-pyrrolo[1,2-b]pyrazol-3-yl)-5-fluoropyridin-2-yl)ureido)cyclohexyl)acetamide], the inhibition at 0.1 µM was found to be 92.8%. Moreover, where the note is “compound 10 nM”, the inhibition at 0.01 µM was determined as 60.2%.

Take `CC(=O)NC1CCC(NC(=O)Nc2cc(-c3cnn4c3CC(C)(C)C4)c(C)cn2)CC1` (stereo not drawn) [Example 52, N-((1r,4r)-4-(3-(4-(5,5-dimethyl-5,6-dihydro-4H-pyrrolo[1,2-b]pyrazol-3-yl-S-methylpyridin-2-yl)ureido)cyclohexyl)acetamide]: the inhibition at 0.1 µM amounted to 78.5%. Also, where the note is “compound 10 nM”, the inhibition at 0.01 µM was 39.7%.

Take `CC(=O)NC1CCC(NC(=O)Nc2cc(-c3cnn4c3CC(C)(C)C4)c(C3CC3)cn2)CC1` (stereo not drawn) [Example 53, N-((1r,4r)-4-(3-(4-(5,5-dimethyl-5,6-dihydro-4H-pyrrolo[1,2-b]pyrazol-3-yl)-5-cyclopropylpyridin-2-yl)ureido)cyclohexyl)acetamide]: the inhibition at 0.1 µM was determined as 59.8%. Further, the inhibition at 0.01 µM (compound 10 nM) came to 40.3%.

`[2H]C([2H])([2H])C(=O)NC1CCC(NC(=O)Nc2cc(-c3cnn4c3CC(C)(C)C4)c(Cl)cn2)CC1` (stereo not drawn) [Example 54, N-((1r,4r)-4-(3-(5-chloro-4-(5,5-dimethyl-5,6-dihydro-4H-pyrrolo[1,2-b]pyrazol-3-yl)pyridin-2-yl)ureido)cyclohexyl)acetamide-2,2,2-d3]: the inhibition at 0.1 µM worked out at 97.4%. Under “compound 10 nM”, the inhibition at 0.01 µM was 70.8%.

Turning to `COCC(C)NC1CCC(NC(=O)Nc2cc(-c3cnn4c3CC(C)(C)C4)c(Cl)cn2)CC1` (stereo not drawn) [Example 55, 1-(5-chloro-4-(5,5-dimethyl-5,6-dihydro-4H-pyrrolo[1,2-b]pyrazol-3-yl)pyridin-2-yl)-3-((1r,4r)-4-((1-methoxypropan-2-yl)amino)cyclohexyl)urea], the inhibition at 0.1 µM was 93.1%. Under “compound 10 nM”, the inhibition at 0.01 µM amounted to 61.3%.

On to `CN(C)CCNC1CCC(NC(=O)Nc2cc(-c3cnn4c3CC(C)(C)C4)c(Cl)cn2)CC1` (stereo not drawn) [Example 56, 1-(5-chloro-4-(5,5-dimethyl-5,6-dihydro-4H-pyrrolo[1,2-b]pyrazol-3-yl)pyridin-2-yl)-3-((1r,4r)-4-((2-(dimethylamino)ethyl)amino)cyclohexyl)urea], for which the inhibition at 0.1 µM is 95.2%. For the same compound, the inhibition at 0.01 µM (compound 10 nM) was determined as 44.9%.

For `CC1(C)Cc2c(-c3cc(NC(=O)NC4CCC(NCCOC(F)(F)F)CC4)ncc3Cl)cnn2C1` (stereo not drawn) [Example 57], the inhibition at 0.1 µM turned out to be 86.5%. For the same compound, where the note is “compound 10 nM”, the inhibition at 0.01 µM was 55%.
